Our source for the IC50 values is patent publication US12325697B2 (Nimbus Clio, Inc., priority 2021, dated 2025).

The term IC50 denotes the concentration needed to halve the response being measured.

Test [1] addresses Recombinant human c-Cbl (aa 47-435) (Homo sapiens (Human), UniProt P22681). Put plainly: c-Cbl Biochemical Assay (TR-FRET). In a few lines: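 TR-FRET binding of UBE2D2-Ub-Bodipy (100 nM) to biotinylated c-Cbl (aa 47-435, 6 nM) via Streptavidin-Tb, measured after c-Cbl activation by Src-Zap70 with 0.5 mM ATP (60-90 min RT, 30 min compound preincubation). Ten-point half-log dilutions, 1% DMSO; IC50 by 4-parameter fit of normalized inhibition.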
A general note: In TR-FRET formats the signal depends on donor and acceptor labels being close together.

Test [2] addresses Recombinant human Cbl-b (aa 36-427) (Homo sapiens (Human), UniProt Q13191). Put plainly: Cbl-b Biochemical Assay (TR-FRET). The following applies: read-out: TR-FRET hCbl-b IC50. The method in brief:
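IC50 from 4-parameter fit of % inhibition (DMSO max, reference-inhibitor min), duplicate ten-point series. Compound preincubated with 6 nM Cbl-b, then Src-Zap70 (1-2.5 nM)/0.5 mM ATP reaction 60 min RT; EDTA quench with labelled UBE2D2-Ub and streptavidin-terbium, 60 min, HTRF at 520 nm.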

Sequence of Recombinant human c-Cbl (aa 47-435) (P22681 47-435): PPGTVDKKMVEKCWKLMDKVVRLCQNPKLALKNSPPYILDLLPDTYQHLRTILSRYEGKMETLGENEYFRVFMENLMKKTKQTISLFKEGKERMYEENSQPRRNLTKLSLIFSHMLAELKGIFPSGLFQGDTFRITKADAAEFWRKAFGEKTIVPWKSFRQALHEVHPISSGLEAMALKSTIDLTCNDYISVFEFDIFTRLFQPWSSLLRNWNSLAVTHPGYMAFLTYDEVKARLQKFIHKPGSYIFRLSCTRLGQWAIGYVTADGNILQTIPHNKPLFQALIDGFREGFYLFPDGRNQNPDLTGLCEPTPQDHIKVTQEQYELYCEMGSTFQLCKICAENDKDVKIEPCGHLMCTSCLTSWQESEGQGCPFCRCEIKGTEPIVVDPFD
Sequence of Recombinant human Cbl-b (aa 36-427) (Q13191 36-427): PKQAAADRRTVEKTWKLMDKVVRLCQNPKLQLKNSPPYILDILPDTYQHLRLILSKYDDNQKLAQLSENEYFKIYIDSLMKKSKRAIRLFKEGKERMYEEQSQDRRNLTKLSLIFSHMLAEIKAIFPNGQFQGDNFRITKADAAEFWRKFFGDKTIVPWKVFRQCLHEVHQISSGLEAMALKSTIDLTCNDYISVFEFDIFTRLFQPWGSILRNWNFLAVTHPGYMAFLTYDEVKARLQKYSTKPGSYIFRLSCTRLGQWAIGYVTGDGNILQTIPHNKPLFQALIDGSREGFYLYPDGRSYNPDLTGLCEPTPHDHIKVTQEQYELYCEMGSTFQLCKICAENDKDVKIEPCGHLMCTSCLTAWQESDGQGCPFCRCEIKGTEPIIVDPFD

`Cn1cnnc1-c1cc(C#N)ccc1-c1cc(C2CC2)nc(N2Cc3ccc(CNCC4CC4)cc3C2=O)c1` [AIB-2, 4-(2-Cyclopropyl-6-(6-(((cyclopropylmethyl)amino)methyl)-1-oxoisoindolin-2-yl)pyridin-4-yl)-3-(4-methyl-4H-1,2,4-triazol-3-yl)benzonitrile]: the IC50 in test [1] and in test [2] was at most 200 nM each time.

As for `Cn1cnnc1-c1cc(C#N)ccc1-c1cc(C2CC2)nc(N2Cc3ccc(CNCC4CCCC4)cc3C2=O)c1` [AIG-1, 4-[2-(6-{[(Cyclopentylmethyl)amino]methyl}-1-oxo-3H-isoindol-2-yl)-6-cyclopropylpyridin-4-yl]-3-(4-methyl-1,2,4-triazol-3-yl)benzonitrile], the IC50 in test [1] and in test [2] was at most 200 nM each time.

Take `Cn1cnnc1-c1cc(C#N)ccc1-c1cc(C2CC2)nc(N2Cc3ccc(CNC4CCC4)cc3C2=O)c1` [ANI-2, 4-(2-{6-[(Cyclobutylamino)methyl]-1-oxo-3H-isoindol-2-yl}-6-cyclopropylpyridin-4-yl)-3-(4-methyl-1,2,4-triazol-3-yl)benzonitrile]: the IC50 in test [1] and in test [2] was at most 200 nM throughout.

Turning to `Cn1cnnc1-c1cc(C#N)ccc1-c1cc(C2CC2)nc(N2Cc3c(F)cc(CN4CC5CC5C4)cc3C2=O)c1` (stereo not shown) [AKQ-2, 4-[2-(6-{3-Azabicyclo[3.1.0]hexan-3-ylmethyl}-4-fluoro-1-oxo-3H-isoindol-2-yl)-6-cyclopropylpyridin-4-yl]-3-(4-methyl-1,2,4-triazol-3-yl)benzonitrile], the IC50 in test [1] and in test [2] was at most 200 nM each time.

As for `Cn1cnnc1-c1cc(C#N)ccc1-c1cc(C2CC2)nc(N2Cc3c(F)cc(CNCC4CCC4)cc3C2=O)c1` [AKS-1, 4-[2-(6-{1[(Cyclobutylmethyl)amino]methyl}-4-fluoro-1-oxo-3H-isoindol-2-yl)-6-cyclopropylpyridin-4-yl]-3-(4-methyl-1,2,4-triazol-3-yl)benzonitrile], the IC50 in test [1] and in test [2] was at most 200 nM throughout.

`Cn1cnnc1-c1cc(C#N)ccc1-c1cc(C2CC2)nc(N2Cc3c(F)cc(CN4C[C@]5(C)C[C@H]4CO5)cc3C2=O)c1` [ANU-3, 4-(2-cyclopropyl-6-(4-fluoro-6-(((1S,4S)-1-methyl-2-oxa-5-azabicyclo[2.2.1]heptan-5-yl)methyl)-1-oxoisoindolin-2-yl)pyridin-4-yl)-3-(4-methyl-4H-1,2,4-triazol-3-yl)benzonitrile]: the IC50 in test [1] and in test [2] was at most 200 nM throughout.

Take `Cn1cnnc1-c1cc(C#N)ccc1-c1cc(C2CC2)nc(N2Cc3c(F)cc(CN4C[C@@H]5C[C@H]4CO5)cc3C2=O)c1` [AKR-3, 4-(2-Cyclopropyl-6-{4-fluoro-6-[(1S,4S)-2-oxa-5-azabicyclo[2.2.1]heptan-5-ylmethyl]-1-oxo-3H-isoindol-2-yl}pyridin-4-yl)-3-(4-methyl-1,2,4-triazol-3-yl)benzonitrile]: the IC50 in test [1] and in test [2] was at most 200 nM throughout.

On to `Cn1cnnc1-c1cc(C#N)ccc1-c1cc(C2CC2)nc(N2Cc3c(F)cc(CNCCC(F)F)cc3C2=O)c1` [AME-2, 4-[2-Cyclopropyl-6-(6-{[(3,3-difluoropropyl)amino]methyl}-4-fluoro-1-oxo-3H-isoindol-2-yl)pyridin-4-yl]-3-(4-methyl-1,2,4-triazol-3-yl)benzonitrile], for which the IC50 in test [1] and in test [2] was at most 200 nM each time.

On to `Cn1cnnc1-c1cc(C#N)ccc1-c1cc(C2CC2)nc(N2Cc3ccc(CNCC4(C)CCC4)cc3C2=O)c1` [ALP-1, 4-{2-Cyclopropyl-6-[6-({[(1-methylcyclobutyl)methyl]amino}methyl)-1-oxo-3H-isoindol-2-yl]pyridin-4-yl}-3-(4-methyl-1,2,4-triazol-3-yl)benzonitrile], for which the IC50 in test [1] and in test [2] was at most 200 nM throughout.

`Cn1cnnc1-c1cc(C#N)ccc1-c1cc(C2CC2)nc(N2Cc3c(F)cc(CNCC(F)(F)F)cc3C2=O)c1` [ALW-1, -[2-Cyclopropyl-6-(4-fluoro-1-oxo-6-{[(2,2,2-trifluoroethyl)amino]methyl}-3H-isoindol-2-yl)pyridin-4-yl]-3-(4-methyl-1,2,4-triazol-3-yl)benzonitrile]: the IC50 in test [1] and in test [2] was at most 200 nM throughout.

As for `CCOCCNCc1ccc2c(c1)C(=O)N(c1cc(-c3ccc(C#N)cc3-c3nncn3C)cc(C3CC3)n1)C2` [AIN-2, 4-[2-cyclopropyl-6-(6-{[(2-ethoxyethyl)amino]methyl}-1-oxo-3H-isoindol-2-yl)pyridin-4-yl]-3-(4-methyl-1,2,4-triazol-3-yl)benzonitrile], the IC50 in test [1] and in test [2] was at most 200 nM throughout.

`Cn1cnnc1-c1cc(C#N)ccc1-c1cc(C2CC2)nc(N2Cc3c(F)cc(CN4CCC[C@H]4CF)cc3C2=O)c1` [APA-2, 4-[2-Cyclopropyl-6-(4-fluoro-6-{[(2S)-2-(fluoromethyl)pyrrolidin-1-yl]methyl}-1-oxo-3H-isoindol-2-yl)pyridin-4-yl]-3-(4-methyl-1,2,4-triazol-3-yl)benzonitrile]: the IC50 in test [1] and in test [2] was at most 200 nM each time.

For the molecule `Cn1cnnc1-c1cc(C#N)ccc1-c1cc(C2CC2)nc(N2Cc3ccc(C(C)(C)N)cc3C2=O)c1` [ALK-9, 4-{2-[6-(2-Aminopropan-2-yl)-1-oxo-3H-isoindol-2-yl]-6-cyclopropylpyridin-4-yl}-3-(4-methyl-1,2,4-triazol-3-yl)benzonitrile], the IC50 in test [1] and in test [2] was at most 200 nM in each case.

Take `Cn1cnnc1-c1cc(C#N)ccc1-c1cc(C2CC2)nc(N2Cc3c(Br)cc(CO)cc3C2=O)c1` [ALA-5, 4-{2-[4-Bromo-6-(hydroxymethyl)-1-oxo-3H-isoindol-2-yl]-6-cyclopropylpyridin-4-yl}-3-(4-methyl-1,2,4-triazol-3-yl)benzonitrile]: the half-inhibitory concentration (IC50) in test [1] and in test [2] was at most 200 nM each time.

With `C[C@H](NCC1CCC1)c1ccc2c(c1)C(=O)N(c1cc(-c3ccc(C#N)cc3-c3nncn3C)cc(C3CC3)n1)C2` [AKB-1, (S)-4-(2-(6-(1-((Cyclobutylmethyl)amino)ethyl)-1-oxoisoindolin-2-yl)-6-cyclopropylpyridin-4-yl)-3-(4-methyl-4H-1,2,4-triazol-3-yl)benzonitrile], the IC50 in test [1] and in test [2] was at most 200 nM throughout.

`CCOc1cc(-c2ccc(F)cc2-c2nncn2C)cc(N2Cc3ccc(CN(C)CC4(O)CCC4)cc3C2=O)n1` [AJT-1, 2-{6-Ethoxy-4-[4-fluoro-2-(4-methyl-1,2,4-triazol-3-yl)phenyl]pyridin-2-yl}-6-({[(1-hydroxycyclobutyl)methyl] (methyl)amino}methyl)-3H-isoindol-1-one]: the IC50 in test [1] and in test [2] was at most 200 nM throughout.

With `Cn1cnnc1-c1cc(C#N)ccc1-c1cc(C2CC2)nc(N2Cc3c(F)cc(CN4CC[C@@H]5C[C@@H]54)cc3C2=O)c1` [AMY-1, 4-(2-{6-[(1S,5R)-2-Azabicyclo[3.1.0]hexan-2-ylmethyl]-4-fluoro-1-oxo-3H-isoindol-2-yl}-6-cyclopropylpyridin-4-yl)-3-(4-methyl-1,2,4-triazol-3-yl)benzonitrile], the IC50 in test [1] and in test [2] was at most 200 nM in each case.

As for `COc1cc(COCC2(O)CCC2)cc2c1CN(c1cc(-c3ccc(F)cc3-c3nncn3C)cc(C3CC3)n1)C2=O` [AIC-11, 2-{6-Cyclopropyl-4-[4-fluoro-2-(4-methyl-1,2,4-triazol-3-yl)phenyl]pyridin-2-yl}-6-{[(1-hydroxycyclobutyl)methoxy]methyl}-4-methoxy-3H-isoindol-1-one], the IC50 in test [1] and in test [2] was at most 200 nM each time.

Take `CN(Cc1cc(F)c2c(c1)C(=O)N(c1cc(-c3ccc(C#N)cc3-c3nncn3C)cc(C3CC3)n1)C2)C1CC1` [AMQ-2, 4-[2-Cyclopropyl-6-(6-{[cyclopropyl(methyl)amino]methyl}-4-fluoro-1-oxo-3H-isoindol-2-yl)pyridin-4-yl]-3-(4-methyl-1,2,4-triazol-3-yl)benzonitrile]: the IC50 in test [1] and in test [2] was at most 200 nM each time.

Consider `COC1(CNCc2ccc3c(c2)C(=O)N(c2cc(-c4ccc(C#N)cc4-c4nncn4C)cc(C4CC4)n2)C3)CCCC1` [AKE-2, 4-{2-Cyclopropyl-6-[6-({[(1-methoxycyclopentyl)methyl]amino}methyl)-1-oxo-3H-isoindol-2-yl]pyridin-4-yl}-3-(4-methyl-1,2,4-triazol-3-yl)benzonitrile], for which the IC50 in test [1] and in test [2] was at most 200 nM throughout.

As to `CN(C)C(=O)CN(Cc1ccc2c(c1)C(=O)N(c1cc(-c3ccc(C#N)cc3-c3nncn3C)cc(C3CC3)n1)C2)CC1COC1` [AON-2, 2-{[(2-{4-[4-Cyano-2-(4-methyl-1,2,4-triazol-3-yl)phenyl]-6-cyclopropylpyridin-2-yl}-3-oxo-1H-isoindol-5-yl)methyl](oxetan-3-ylmethyl)amino}-N,N-dimethylacetamide], the IC50 in test [1] and in test [2] was at most 200 nM throughout.

Consider `CN(Cc1ccc2c(c1)C(=O)N(c1cc(-c3ccc(C#N)cc3-c3nncn3C)cc(C3CC3)n1)C2)C1CCC1` [AOA-1], for which the IC50 in test [1] and in test [2] was at most 200 nM throughout.

For `CCOc1cc(-c2ccc(C#N)cc2-c2nncn2C)cc(N2Cc3ccc(CNCCOC)cc3C2=O)n1` [AHS-2, 4-(2-Ethoxy-6-(6-(((2-methoxyethyl)amino)methyl)-1-oxoisoindolin-2-yl)pyridin-4-yl)-3-(4-methyl-4H-1,2,4-triazol-3-yl)benzonitrile], the IC50 in test [1] and in test [2] was at most 200 nM throughout.
